Data published in US20140056866A1, “USE OF BIOLOGICAL OR CHEMICAL CONTROL AGENTS FOR CONTROLLING INSECTS AND NEMATODES IN RESISTANT CROPS” (priority 2010, published 2014).

What was measured:
[1] = system: S. frugiperda; test: Leaf sample bioassay with fall armyworm larvae (Example 3); format: in vivo; details: for Insect Mortality / Leaf Feeding Rating: 48 hours; for Insect Mortality: Jul. 14, 2011; for Leaf Feeding Rating: scale 0 = undamaged to 3 = severe feeding; for additional increase in mortality in the presence of Axmi205: versus clothianidin alone; for increase in mortality above the negative control: Axmi205-negative plants
Experimental: (§1) Zea Mays (Corn) seed from events traited with Axmi205 were selected. […] The population of the seed used is not entirely transgenic; plants without the trait in their DNA were used for control comparisons.
(§2) Seed was treated with seed applied pesticides using a hege bowl treater. Applications were made of: Clothianidin; available as Poncho though through Bayer CropScience. Rates were applied as mg ai/seed. The evaluation had non-target variables controlled.
(§3) During testing, samples of each plant were submitted for PCR to determine if an individual plant carried the Axmi205 gene (positive or negative). Plants for which no PCR results could be obtained were not included in the results.
(§4) Seed were planted into germination mix at a rate of one seed per root-trainer. Testing was conducted as a randomized complete block with 30 replications. Plants were maintained in a greenhouse and periodically assessed for emergence. After several weeks of growth, leaf samples were taken from plants and used to conduct insect bioassays on species of Lepidoptera. A leaf sample was placed into a Petri-dish and infested with 10 larvae of fall armyworm; Spodoptera frugiperda. After 48 hours dishes were evaluated for insect mortality and leaf feeding damage. When assessing leaf feeding, damage was recorded as a rating between 0-3, where zero was undamaged and three was severely damaged. After approximately three weeks from planting, plants were infested with Diabrotica virgifera (western corn rootworm). Western corn rootworm eggs were infested into the root system of plants. At approximately 15 days post infestation plants were extracted and insect feeding damage was evaluated following Iowa State University's Node-Injury Scale at www.ent.iastate.edu/pest/rootworm/nodeinjury/nodeinjury.html.

[2] = system: D. virgifera; test: Western corn rootworm root feeding damage, Node-Injury Scale (Example 3); format: in vivo, Diabrotica virgifera; details: for Root Damage Rating: 0 = undamaged, 3 = severely damaged
Experimental: as §1, §2, §3, §4

[3] = system: Glycine max (soybean); test: Soybean shoot height and plant mass after metalaxyl seed treatment (Example 2); format: in vivo
Experimental: (§5) Glycine max (soybean) seed from an event traited with Axmi031 was selected. […] Plants that screened negative for the presence of the transgene were used for control comparisons.
(§6) Seed was treated with seed applied pesticides using a hege bowl treater. Metalaxyl (MTL), available as Allegiance through Bayer CropScience, was applied at rates of 2 and 4 g ai/100 kg seed. Trilex 2000 was also included as a commercial standard package.
(§7) During testing, samples of each plant were submitted for PCR to determine if an individual plant carried the Axmi031 gene (Positive or Negative). Plants for which no PCR results could be obtained were not included in results. There were a disproportionate number of positive plants. As a result, the number of negative plants available in some comparisons was very small.
(§8) Testing was conducted as a randomized complete block with 30 replications. Seed were planted into sand at a rate of one seed per pot. Plants were stored at 10° C. for eight days and then moved to 25° C. for the remainder of the test. Plants were periodically assessed for emergence. After several weeks of growth plants were evaluated for height. At approximately 40 days after planting, 5 random plants for each treatment comparison were selected for extraction. If fewer than 5 plants were available, evaluations were still conducted as long as a minimum of 3 plants could be assessed. Exacted plants were measured by hand to determine root length and mass and evaluated using WinRHIZO image analysis system (available through Regent instruments at www.regent.qc.ca/products/rhizo/WinRHIZO.html.

[4] = system: Glycine max (soybean) roots; test: WinRHIZO root image analysis of soybean (Example 2); format: in vivo
Experimental: as §5, §6, §7, §8

[5] = system: SCN (inbred colony OP50); test: SCN cyst counts on soybean pot plants, seed treated with fluopyram (Example 1); format: in vivo, soybean cyst nematodes; details: base (color/coating) treatment only, two months after planting
Experimental: Two tests were planted with Jack (an SCN resistant soybean variety with PI 88788 resistance) and two genetically modified Jack varieties (AXN2 and AXMI031) known to produce a nematicidal protein. The seed were treated with a color/coating base or the same base plus one of two different rates of fluopyram (experiment 1 used 0.075 mg fluopyram/seed and experiment 2 used 0.15 mg fluopyram/seed). The SCN used to inoculate both tests were collected from an inbred colony (OP50) with the ability to overcome PI 88788 resistance.
Tests were conducted as non-randomized blocks with a minimum of 10 replicates. Seed were planted in individual 4″ clay pots with coarse sand and inoculated with approximately 20,000 OP50 juveniles in ten equal inoculations beginning at planting and again approximately every third day. Plants were maintained in a germination chamber. Blocks were rotated approximately every third day to minimize potential influence of environmental variance. Two months after planting, plants were harvested and cysts were collected and counted to evaluate the efficacy of the nematicide and traits, both individually and in combination with each other.

[6] = system: SCN (HG2.5.7); test: SCN cyst counts on Axmi031 soybean treated with Bacillus firmus (Example 4, FIG. 2); format: in vivo, soybean cyst nematodes; details: Axmi031 expression
From the text: Soybeans (6-10 seeds each) in this study included: Control SB171 (transfected control with non gene of interest); SB 171 treated with Bacillus firmus CNCM I-1582 spore control plant; Axmi031 transgenic plant (which also contains non gene of interest); Axmi031 transgenic plant (which also contains non gene of interest) treated with Bacillus firmus CNCM I-1582 spore.
Soybeans (6-10 seeds/plant and treatment) were planted into 4″ clay pots in sand infested with approximately 37,000 SCN eggs (HG2.5.7) at time of planting. Soybean plants were reinfested with 20,000 SCN eggs (HG2.5.7) at approximately 4 weeks post planting. Plants were grown 57 days post reinfestation date. Cysts were harvested from each pot and counted. PCR and Western analysis were done on each AXMI031 plant. Negative segregants were removed from analysis. Data shown in FIG. 2 represents six plants for SB171 each treatment and all PCR/Western positive Axmi031 plants.

[7] = metalaxyl 2 g ai added to Axmi031
[8] = metalaxyl 4 g ai added to Axmi031

Molecule: CN/C(=N\[N+](=O)[O-])NCc1cnc(Cl)s1 [clothianidin]
- Insect Mortality ([1]; CTD 0.125 mg ai/seed): 8%
- Leaf Feeding Rating ([1]; CTD 0.125 mg ai/seed): 3.00
- Insect Mortality ([1]; CTD 0.25 mg ai/seed): 12%
- Leaf Feeding Rating ([1]; CTD 0.25 mg ai/seed): 2.77
- Insect Mortality ([1]; CTD 0.5 mg ai/seed): 11%
- Leaf Feeding Rating ([1]; CTD 0.5 mg ai/seed): 3.00
- additional increase in mortality in the presence of Axmi205 ([1]; clothianidin 0.125 mg ai/seed): 88%
- additional increase in mortality in the presence of Axmi205 ([1]; clothianidin 0.5 mg ai/seed): 54%
- increase in mortality above the negative control ([1]; highest rate of clothianidin (0.5 mg ai/seed)): 57%
- increase in mortality above the negative control ([1]; lowest rate of clothianidin (0.125 mg ai/seed)): 14%
- increase in mortality above the negative control ([1]; middle rate of clothianidin (0.25 mg ai/seed)): 71%
- Root Damage Rating ([2]; CTD 0.125 mg ai/seed): 0.56
- Root Damage Rating ([2]; CTD 0.25 mg ai/seed): 0.32
- Root Damage Rating ([2]; CTD 0.5 mg ai/seed): 0.04
- reduction of root damage over the negative control ([2]; highest rate of clothianidin tested (0.5 mg ai/seed)): 96%
- reduction of root damage over the negative control ([2]; lowest rate of clothianidin tested (0.125 mg ai/seed)): 67%

Molecule: COCC(=O)N(c1c(C)cccc1C)C(C)C(=O)OC (stereo not drawn) [metalaxyl]
- plant shoot height, trend with rate ([3]; metalaxyl 2 and 4 g ai/100 kg seed): increased with increasing rates
- additional increase in plant total mass ([3]; metalaxyl 2 g ai on Axmi031 plants): 5%
- additional shoot height ([3]; metalaxyl 2 g ai/100 kg seed on Axmi031 plants): 5%
- increase in above ground plant mass compared to Axmi031 alone ([3]; metalaxyl 4 g ai on Axmi031 plants): 11%
- additional shoot height ([3]; metalaxyl 4 g ai/100 kg seed on Axmi031 plants): 8%
- increase in root lengths [4, 7]: 60%
- increase in root surface area [4, 7]: 42%
- increase in root volume [4, 7]: 27%
- increase in root lengths [4, 8]: 68%
- increase in root surface area [4, 8]: 37%
- increase in root volume [4, 8]: 11%
- root tips, forks, and crossings ([4]; metalaxyl added to Axmi031, trend with rate): increased as metalaxyl rate increased

B1: Axn2: nematicidal protein trait expressed in genetically modified Jack soybean (gene axn2, Table 1) (protein, listed as Bacillus thuringiensis)
chain: MRIRRNQSTLSHNERLAFTNAVLELKRRPSRLPMSLGSTSRYDDYVYWHLQSMENQTSTTPGWAHRGPAFLPWHRYYLNQFEEDLQRIDHTVTLPYWDWTVDNSTDSSVPGSPWTDDFMGGDGDPTQEYTVTTGPFTGDNWKLTLFDHHENEPHNARLRRQLGTTLNASGNTISINLPTDSEVQNCLLETPYYVSPWRAGQDVNQPALNPTKPSFCNRLEGWYGAGSIHNKVHVWVAGATEGSMIWMSSPNDPVFFLHHANIDRLWVQWQANNPNEGYHPTGNGNEVGPTGHNLNDSMNPWGRKVTPNNVLNHYSLGYTYDTDSTPLSEIFMHTFNLKIRKEKQIKDGHFGLSQEDLDKL
- percent reduction in average number of cysts compared to Jack ([5]; first experiment): 20%
- percent reduction in average number of cysts compared to Jack ([5]; second experiment): 43%

B2: Axmi031: nematicidal protein trait expressed in genetically modified soybean (gene axmi031, Table 1) (protein)
chain: MDCNLQSQQNIPYNVLAIPVSNVNSLTDTVGDLKKAWEEFQKTGSFSLTALQQGFSASQGGTFNYLTLLQSGISLAGSFVPGGTFVAPIINMVIGWLWPHKNKNADTENLINLIDSEIQKQLNKALLDADRNEWSSYLESIFDSSNNLNGAIVDAQWSGTVNTTNRTLRNPTESDYTNVVTNFIAADGDIANNENHIMNGNFDVAAAPYFVIGATARFAAMQSYIKFCNAWIDKVGLSDAQLTTQKANLDRTKQNMRNAILNYTQQVMKVFKDSKNMPTIGTNKFSVDTYNVYIKGMTLNVLDIVAIWPSLYPDDYTSQTALEQTRVTFSNMVGQEEGTDGSLRIYNTFDSFSYQHSPIPNNNVNLISYYNDELQNLELGVYTPPKKGSGYSYPYGFVLNYANSKYKYGDSNDPESLGGLSTLSAPIQQVNAATQNSKYLDGEILNGIGASLPGYCTTGCSPTEPPFSCTSTANGYKASCNPSDTNQKINALYPFTQANVKGNTGKLGVLASLVSYDLNPKNVFGELDSDTNNVILKGIPAEKGYFPNNARPTVVKEWINGASAVPLDSGNTLFMTATNLTATQYRIRIRYANPNSNTQIGVRITQNGSLISSSNLTLYSTTDMNNTLPLNVYVIGENGNYTLQDLYNTTNVLSTGDITLQITGGDQKIFIDRIEFVPTMPVPGNTNNNNGNNNGNNNPPHHVCAIAGTQQSCSGPPKFEQVSDLEKITTQVYMLFKS
modifications: AXMI-031(A-D)
- percent reduction in average number of cysts compared to Jack ([5]; first experiment): 92%
- percent reduction in average number of cysts compared to Jack ([5]; second experiment): 88%
- shoot length versus untreated negative control (UTC) ([3]; 28 days after planting (DAP), Axmi031 without metalaxyl): 14%
- increase in plant total mass ([3]; presence of Axmi031, no metalaxyl): 13%
- WinRHIZO root values versus negative control ([4]; Axmi031 as an individual component): comparable to, or slightly below, the negative control
- SCN cyst counts in transgenic soybean plants [6]: correlates with reduction in SCN cysts counts
